Values after ≈ are worked out from the molar mass of the structure shown.
Legend:
Escherichia coli = assay: Disk diffusion antibacterial test; type: cell-based
Staphylococcus aureus = assay: Disk diffusion antibacterial test; type: cell-based
Pseudomonas aeruginosa = assay: Disk diffusion antibacterial test; type: cell-based
Aspergillus brasiliensis = assay: Disk diffusion antibacterial test; type: cell-based
Candida albicans = assay: Disk diffusion antibacterial test; type: cell-based
Malassezia furfur = assay: Sterilizing power (broth dilution MIC) of anti-dandruff hair care (antifungal) compositions
Malassezia restricta = assay: as above
Malassezia globosa = assay: as above
E. coli = assay: Broth dilution MIC test of antimicrobial and preservative compositions; type: cell-based, Escherichia coli; conditions: % only in method b353
Experimental: (§1) C. albicans was inoculated into Sabouraud dextrose broth and cultured at 25° C. for 24 hours. […] The liquid media used for E. coli, S. aureus, and P. aeruginosa (bacteria) were tryptic soy broth, and the liquid media used for C. albicans, and A. brasiliensis (fungi) were Sabouraud dextrose broth.

S. aureus = assay: as above; type: cell-based, Staphylococcus aureus; conditions: % only in method b353
Experimental: as §1

P. aeruginosa = assay: as above; type: cell-based, Pseudomonas aeruginosa; conditions: % only in method b353
Experimental: as §1

A. brasiliensis = assay: as above; type: cell-based, Aspergillus brasiliensis; conditions: % only in method b353
Experimental: as §1

C. albicans = assay: as above; type: cell-based, Candida albicans; conditions: % only in method b353
Experimental: as §1

[1] = comparison over mixing ratios of Formula 1 with PO, ZPT or CB
[2] = Test A (Formula 1 / Formula 2), Tables 2-3
[3] = Test B (Formula 1 / Formula 3), Tables 16-17
[4] = Formula 1 mixed with climbazole (CB) at mixing ratio (%), broth dilution
[5] = Formula 1 mixed with zinc pyrithione (ZPT) at mixing ratio (%), broth dilution

Compound: CCCCCCCCCCCCN(CC(O)CO)CC(O)CO (stereo not drawn) [3,3′-(dodecylimino)bispropane-1,2-diol]
- clear zone where strain growth was inhibited, E. coli (Escherichia coli; 50 μl on disk, 1st repetition): 2.5 mm
- clear zone where strain growth was inhibited, E. coli (Escherichia coli; 50 μl on disk, 2nd repetition): 2.5 mm
- clear zone where strain growth was inhibited, E. coli (Escherichia coli; 50 μl on disk, 3rd repetition): 3 mm
- clear zone where strain growth was inhibited, E. coli (Escherichia coli; Mean of three repetitions): 2.6 mm
- clear zone where strain growth was inhibited, S. aureus (Staphylococcus aureus; 50 μl on disk, 1st repetition): 2 mm
- clear zone where strain growth was inhibited, S. aureus (Staphylococcus aureus; 50 μl on disk, 2nd repetition): 3 mm
- clear zone where strain growth was inhibited, S. aureus (Staphylococcus aureus; 50 μl on disk, 3rd repetition): 2.5 mm
- clear zone where strain growth was inhibited, S. aureus (Staphylococcus aureus; Mean of three repetitions): 2.5 mm
- clear zone where strain growth was inhibited, P. aeruginosa (Pseudomonas aeruginosa; 50 μl on disk, 1st repetition): 1 mm
- clear zone where strain growth was inhibited, P. aeruginosa (Pseudomonas aeruginosa; 50 μl on disk, 2nd repetition): 1.5 mm
- clear zone where strain growth was inhibited, P. aeruginosa (Pseudomonas aeruginosa; 50 μl on disk, 3rd repetition): 1 mm
- clear zone where strain growth was inhibited, P. aeruginosa (Pseudomonas aeruginosa; Mean of three repetitions): 1.2 mm
- clear zone where strain growth was inhibited, A. brasiliensis (Aspergillus brasiliensis; 50 μl on disk, 1st repetition): 1.5 mm
- clear zone where strain growth was inhibited, A. brasiliensis (Aspergillus brasiliensis; 50 μl on disk, 2nd repetition): 2 mm
- clear zone where strain growth was inhibited, A. brasiliensis (Aspergillus brasiliensis; 50 μl on disk, 3rd repetition): 2 mm
- clear zone where strain growth was inhibited, A. brasiliensis (Aspergillus brasiliensis; Mean of three repetitions): 1.8 mm
- clear zone where strain growth was inhibited, C. albicans (Candida albicans; 50 μl on disk, 1st repetition): 5 mm
- clear zone where strain growth was inhibited, C. albicans (Candida albicans; 50 μl on disk, 2nd repetition): 5 mm
- clear zone where strain growth was inhibited, C. albicans (Candida albicans; 50 μl on disk, 3rd repetition): 6 mm
- clear zone where strain growth was inhibited, C. albicans (Candida albicans; Mean of three repetitions): 5.3 mm
- sterilizing effect against Malassezia furfur (in words) (Malassezia furfur; [1]): lowest sterilizing effect
- sterilizing effect against Malassezia restricta (in words) (Malassezia restricta; [1]): lowest sterilizing effect
- sterilizing effect against Malassezia globosa (in words) (Malassezia globosa; [1]): lowest sterilizing effect

Compound: CCCCCCCCCCCCN(CC(O)CO)CC(O)CO (stereo not drawn) [Comparative Example1, 3,3′-(dodecylimino)bispropane-1,2-diol]
- minimum inhibitory concentration (MIC), E. coli (E. coli; [2]): 0.1%
- minimum inhibitory concentration (MIC), E. coli (E. coli; [3]): 0.1%
- minimum inhibitory concentration (MIC), S. Aureus (S. aureus; [2]): 0.1%
- minimum inhibitory concentration (MIC), S. Aureus (S. aureus; [3]): 0.1%
- minimum inhibitory concentration (MIC), P. Aeruginosa (P. aeruginosa; [2]): 0.25%
- minimum inhibitory concentration (MIC), P. Aeruginosa (P. aeruginosa; [3]): 0.25%
- minimum inhibitory concentration (MIC), A. brasiliensis (A. brasiliensis; [2]): 0.1%
- minimum inhibitory concentration (MIC), A. brasiliensis (A. brasiliensis; [3]): 0.1%
- minimum inhibitory concentration (MIC), C. albicans (C. albicans; [2]): 0.05%
- minimum inhibitory concentration (MIC), C. albicans (C. albicans; [3]): 0.05%

Compound: CC(C)(C)C(=O)C(Oc1ccc(Cl)cc1)n1ccnc1 (stereo not drawn) [climbazole]
- MIC (Malassezia furfur; [4]): 20 µg/mL
- MIC (Malassezia restricta; [4]): 4 µg/mL
- MIC (Malassezia globosa; [4]): 1 µg/mL

Compound: Cc1cc(CC(C)CC(C)(C)C)n(O)c(=O)c1 (stereo not drawn) [piroctone olamine]
- MIC (Malassezia furfur; Malassezia furfur): 30 µg/mL (≈ 126 µM)
- MIC (Malassezia restricta; Malassezia restricta): 18 µg/mL (≈ 75.8 µM)
- MIC (Malassezia globosa; Malassezia globosa): 4 µg/mL (≈ 16.9 µM)

Compound: zinc pyrithione
- MIC (Malassezia furfur; [5]): 7 µg/mL
- MIC (Malassezia restricta; [5]): 4 µg/mL
- MIC (Malassezia globosa; [5]): 1 µg/mL

— patent US20260182568A1, “DISINFECTANT AND PRESERVATIVE COMPOSITIONS” (BJBIOCHEM CO., LTD., priority 2023, published 2026)
